Measured values published in patent US20250289822A1, “SOLID FORMS OF HIV INTEGRASE INHIBITORS” (priority 2024, published 2025).

Assay: Hygroscopicity by dynamic vapor sorption (DVS): water sorption/desorption as a function of relative humidity
Assay type: physicochemical
Method: Hygroscopicity was studied using dynamic vapor sorption (DVS, TA Q5000 SA, TA Instruments, New Castle, DE or DVS, DVS Intrinsic, Surface Measurement Systems, London, UK). […] The water sorption and desorption were studied as a function of relative humidity (RH) at 25° C. […] Data analysis was performed using Universal Analysis 2000 Version 4.7A (TA Instruments, New Castle, DE) for TA DVS runs and Microsoft Excel for SMS DVS runs.

In the case of `C[C@@H]1C=C[C@H](C)N2CN1n1cc(C(=O)NCc3c(F)cc(F)cc3F)c(=O)c(O)c1C2=O` [Compound of Formula I, Form I, (1S,2R,5S)-8-hydroxy-2,5-dimethyl-7,9-dioxo-N-(2,4,6-trifluorobenzyl)-2,5,7,9-tetrahydro-1,6-methanopyrido[1,2-b][1,2,5]triazonine-10-carboxamide], the “solid form change after the DVS experiment” value (material checked post DVS experiment) is reported as “not have changed form” and the “water absorbed (DVS)” value (up to 95% RH at 25° C.) is reported as “about 0.15%”.
